Converted amounts (≈) assume the structure as drawn. Like-named read-outs stand apart in the source and are kept apart here.
Key:
[1] = test system: Agrobacterium biosensor cells; assay: Minimal bactericidal concentration (MBC); assay type: cell-based, Agrobacterium tumefaciens; conditions: Agrobacterium; 99.9% reduction of 10^5 CFU/ml after 36 h at 30°C; read-out: MBC
Method: (§1) Aside from the effect of QSI on QS regulation, the toxicity of these compounds was tested on bacterial cells by measuring two parameters: the minimal inhibitory concentration (MIC) and minimal bactericidal concentration (MBC). MIC, which is the lowest concentration of QSI (µg/ml) inhibiting any visible culture after 36 h of incubation at 30°C, was estimated by culturing 10^5 CFU/ml of the Agrobacterium biosensor cells in the presence of different concentrations of the QSI. MBC, which is the lowest concentration of QSI (µg/ml) that results in a 99.9% reduction of the initial bacterial population (10^5 CFU/ml) after 36 h of incubation at 30°C in the presence of different concentrations of QSI, was estimated by plating 100 µL of the Agrobacterium cultures on agar LBm plates. After an incubation of 48 h at 30°C, CFU were counted and the MBC values were calculated.

[2] = test system: Agrobacterium biosensor cells; assay: Minimal inhibitory concentration (MIC); assay type: cell-based, Agrobacterium tumefaciens; conditions: 10^5 CFU/ml, 36 h at 30°C
Method: as §1

[3] = test system: A. tumefaciens NT1(pZLR4) traG-lacZ reporter fusion; assay: QSI activity on A. tumefaciens AHL-bioindicator (traG-lacZ β-galactosidase); assay type: cell-based, Agrobacterium tumefaciens; conditions: for inhibition at 100 µg/mL: Agrobacterium tumefaciens, read-out: inhibition (%) at 100 µg/ml; for QSI hit in library screening: second screening: compounds at 5 µg/ml, C8-HSL 10 nM, A. tumefaciens biosensor
Method: Two bacterial QS-signal biosensors were used. Chromobacterium violaceum CV026 [41] was grown in Luria-Bertani modified (LBm) medium, in which the NaCl concentration was 5 g/l instead of 10 g/l. Agrobacterium tumefaciens NT1(pZLR4) was grown in AB minimal medium supplemented with mannitol (0.2%). After supplementation with appropriate AHL, each of the QS-biosensors expresses a reporting activity, which is the production of the pigment violacein in C. violaceum CV026 and that of β-galactosidase from the transcriptional fusion traG::lacZ in A. tumefaciens NT1(pZLR4).
When the screening was performed, the chemical library of the Institut de Chimie des Substances Naturelles (ICSN, Gif-sur-Yvette, France) contained more than 3500 synthetic and natural compounds, which were individually dissolved in dimethylsulfoxide (DMSO) at 1mg/ml and stored in 96 microwell plates. A first screening was performed by mixing biosensor CV026 with the AHL hexanoylhomoserine lactone (C6-HSL) at 0.5 µM and the tested compounds at 50 µg/ml. Final volume was adjusted to 100 µl with a synthetic medium (10% LBm and 0.4% sucrose). After 24 hours of incubation at 30°C, the presence or absence of violacein pigment was quoted by visual reading. […] Final volume was adjusted to 100 µl by the addition of AB minimal medium supplemented with mannitol (0.2%) and TY medium (10%). After 4 hours of incubation at 30°C, β-galactosidase activity was measured in A. tumefaciens cultures as previously described. In the two screenings, 4-nitropyridine-N-oxide (4-NPO) was used as a QSI reference. […]

[4] = test system: QS-regulated Ti-plasmid transfer in A. tumefaciens; assay: QS-regulated Ti-plasmid transfer (conjugation) assay; assay type: cell-based, Agrobacterium tumefaciens; conditions: QSI at 0.1 mg/ml, OC8-HSL 500 pM, 72 h at 24°C
Method: Figure 4 In vitro Ti plasmid transfer frequency in Agrobacterium. The Ti plasmid transfer frequencies were measured in the presence of QSI (A) and the four 1248-diastereoisomeres (B) at 0.1 mg/ml. Histograms represent the cell density of transconjugants (CFU/ml), while black diamonds and squares, those of the donor and recipient strains, respectively. Measurements were performed in quadruplicate and the experiment was repeated twice. The cell densities of transconjugants in the presence of QSI were compared to that of the control in the presence of DMSO with a Mann and Whitney test (α = 0.05). Statistically different values are noted by asterisks.
In A. tumefaciens, the transfer of the Ti-plasmid from a donor cell to a recipient one is controlled by QS. QSI were evaluated for their capacity to reduce plasmid transfer frequency in Agrobacterium. In the plasmid transfer assay, two modified Agrobacterium strains were used: a Ti-plasmid donor, which requires exogenous AHL to transfer a kanamycin-resistant (Km^r) Ti-plasmid, and a rifampicin-resistant (Rif^r) recipient strain, which is free of Ti-plasmid. Overnight cultures of the donor and recipient strains were mixed with 500 pM of oxo-octanoylhomoserine lactone (OC8-HSL) and 0.1 mg/ml of QSI in LBm medium. Each combination was repeated 4 times in microwell plates.

P. aeruginosa = assay: Growth kinetics of P. aeruginosa in the presence of QSIs; assay type: cell-based, Pseudomonas aeruginosa; conditions: QSI at 0.5 mg/ml, OD600 and CFU at 8 and 18 hour
Method: (§2) Figure 5 QSIs modulated QS-signal accumulation in P. aeruginosa. Growth kinetics (n = 6) of P. aeruginosa was measured (OD600) in the presence of the QSIs (estradiol, estrone, estriol, hordenine and 4-NPO) at 0.5 mg/ml using DMSO as a negative control. Cell counts were assessed (CFU/ml) at 8- and 18-hour, and C4-HSL and OC12-HSL concentration (µM) were determined in the bacterial cultures at 18-hour. Statistically different values (Student's t test with α = 0.01) are noted by asterisks.
(§3) QS gene transcription in P. aeruginosa PAO1 was monitored using PAO1 strains carrying various gene promoters fused to a lacZ reporter gene, as described in Vandeputte et al., 2010 and Table 1. PAO1 reporter strains were prepared according to Vandeputte et al.. Briefly, 18-hours-old liquid cultures (50 µl) were diluted in order to obtain a starting OD600 nm comprised between 0.02 and 0.03 in fresh LB medium supplemented with 50 mM MOPS pH 7.0 (1 ml), carbenicillin (300 µg/ml) and 10 µl of the QSIs to be tested (OD were measured using a SpectraMax M2 device from Molecular Devices). Test and control QSIs were diluted in 100% DMSO (resulting after addition to the growth medium in a 1% final concentration of DMSO). Cultures were incubated for 18 hours at 37°C with agitation. After incubation, cell densities were assessed spectrophotometrically (OD600 nm) and β-galactosidase assays were performed using the substrate o-nitrophenyl-β-D-galactopyranoside as described previously, [29]. Promoterless-lacZ fusions were used as controls. AHLs were quantified as described in Vandeputte et al.. All tests were performed in quintuplicates and three biological repetitions. The statistical significance of each test was evaluated by conducting Student's t tests and two-way ANOVA combined with the Tukey post-analysis test using the GraphPad Prism software and p values≤0.01 were considered significant.

[5] = test system: QS-signal accumulation in P. aeruginosa; assay: AHL (C4-HSL, OC12-HSL) quantification in P. aeruginosa cultures by mass spectrometry; assay type: cell-based, Pseudomonas aeruginosa; conditions: QSI at 0.5 mg/ml, 18-hour
Method: as §2, §3

For `C=C[C@H]1CN2CC[C@H]1C[C@H]2[C@H](O)c1ccnc2ccc(OC)cc12` [Compound 937], the MBC [1] was over 100 µg/mL, the MIC ([2]; Agrobacterium, read-out: MIC) was over 100 µg/mL and the inhibition at 100 µg/mL [3] was 15%. The “QSI hit in library screening” value [3] was “hits”.
`O=[N+]([O-])c1cc[n+]([O-])cc1` [Compound 4-NPO, 4-nitropyridine-N-oxide, reference compound] was tested, and the MBC [1] was over 100 µg/mL, the MIC ([2]; Agrobacterium, read-out: MIC) was 25 µg/mL (≈ 178 µM) and the “decrease of plasmid transfer efficiency” value [4] was 10 fold. The “effect on growth of P. aeruginosa” value (P. aeruginosa) was “slightly delayed the growth”, the “C4-HSL concentration in cell cultures” value [5] was “reduction” and the “OC12-HSL concentration in cell cultures” value [5] was “reduction”.
`CC(NCC1Cc2ccccc2N1)c1cccc2ccccc12` (stereo not drawn) [Compound 1248] was tested, and the MBC [1] was over 100 µg/mL, the MIC ([2]; Agrobacterium, read-out: MIC) was over 100 µg/mL and the “QSI hit in library screening” value [3] was “hits”.
With `CC1C2CCC3C4CC=C5CC(N)CCC5(C)C4CCC32CN1C.Cl` (stereo not drawn) [Compound 283, 2,3,11a-Trimethyl-2,3,3a,4,5,5a,5b,6,8,9,10,11,11a,11b,12,13-hexadecahydro-1H-2-aza-pentaleno[1,6a-a]phenanthren-9-ylamine hydrochloride] the MBC [1] was over 100 µg/mL, the MIC ([2]; Agrobacterium, read-out: MIC) was over 100 µg/mL and the “QSI hit in library screening” value [3] was “hits”.
`CC(C)CCC[C@@H](C)[C@H]1CCC2C3CC=C4C[C@@H](Cl)CC[C@]4(C)C3CC[C@@]21C` (stereo partly drawn) [Compound 1099] was tested, and the MBC [1] was over 100 µg/mL, the MIC ([2]; Agrobacterium, read-out: MIC) was 100 µg/mL (≈ 247 µM) and the “effect on Ti plasmid transfer frequency (words)” value (shortened to “effect … (words)”) [4] was “significantly reduce the plasmid transfer frequency by one order of magnitude”. The “QSI hit in library screening” value [3] was “hits”.
In the case of `CN1CCc2c([nH]c3ccccc23)C1` [Compound 3492], the MBC [1] is reported as over 100 µg/mL, the MIC ([2]; Agrobacterium, read-out: MIC) is reported as over 100 µg/mL and the “QSI hit in library screening” value [3] is reported as “hits”.
In the case of `Cc1ccc(S(=O)(=O)CCC(=O)c2ccccc2)cc1` [Compound 1577], the MBC [1] is reported as 25 µg/mL (≈ 86.7 µM), the MIC ([2]; Agrobacterium, read-out: MIC) is reported as 3 µg/mL (≈ 10.4 µM) and the “effect … (words)” value [4] is reported as “significantly reduce the plasmid transfer frequency by one order of magnitude”. The “QSI hit in library screening” value [3] was “hits”.
`C[C@H](NC[C@H]1Cc2ccccc2N1)c1cccc2ccccc12` [(R,S)-1248, (S)-N-((R)-indolin-2-ylmethyl)-1-(naphthalen-1-yl)ethanamine] gave an MBC [1] of 100 µg/mL (≈ 331 µM), an MIC ([2]; Agrobacterium, read-out: MIC) of 100 µg/mL (≈ 331 µM) and an inhibition at 100 µg/mL [3] of 0%.
Work on `C[C@@H](NC[C@H]1Cc2ccccc2N1)c1cccc2ccccc12` [(R,R)-1248, (R)-N-((R)-indolin-2-ylmethyl)-1-(naphthalen-1-yl)ethanamine] yielded an MBC [1] of 100 µg/mL (≈ 331 µM), an MIC ([2]; Agrobacterium, read-out: MIC) of 100 µg/mL (≈ 331 µM) and an inhibition at 100 µg/mL [3] of 10%.
Molecule `CC/C=C\C[C@H]1C(=O)CC[C@@H]1CC(=O)O` [Jasmonic acid, jasmonic acid, reference compound] has an MBC [1] of over 100 µg/mL and an MIC ([2]; Agrobacterium, read-out: MIC) of over 100 µg/mL.
`Cc1cn(COCCSc2ccccc2)c(=O)[nH]c1=O` [Compound 1949, 5-Methyl-1-(2-phenylsulfanyl-ethoxymethyl)-1H-pyrimidine-2,4-dione] showed an MBC [1] of over 100 µg/mL, an MIC ([2]; Agrobacterium, read-out: MIC) of over 100 µg/mL and an inhibition at 100 µg/mL [3] of 38%. The “QSI hit in library screening” value [3] was “hits”.
`CCC12CCCN3CCC4(C(=C(C(=O)OC)C1)Nc1ccccc14)C32` (stereo not drawn) [Compound 14] showed an MBC [1] of over 100 µg/mL, an MIC ([2]; Agrobacterium, read-out: MIC) of over 100 µg/mL and an inhibition at 100 µg/mL [3] of 0%. The “QSI hit in library screening” value [3] was “hits”.
For `COc1nc([N+](=O)[O-])nn1[C@H]1C[C@H](O)[C@@H](CO)O1` [Compound 1102], the MBC [1] was over 100 µg/mL, the MIC ([2]; Agrobacterium, read-out: MIC) was over 100 µg/mL and the “effect … (words)” value [4] was “significantly reduce the plasmid transfer frequency by one order of magnitude”. For the same molecule, the inhibition at 100 µg/mL [3] was 0% and the “QSI hit in library screening” value [3] was “hits”.
Molecule `C[C@H](NC[C@@H]1Cc2ccccc2N1)c1cccc2ccccc12` [(S,S)-1248, (S)-N-((S)-indolin-2-ylmethyl)-1-(naphthalen-1-yl)ethanamine] has an MBC [1] of over 100 µg/mL and an MIC ([2]; Agrobacterium, read-out: MIC) of 100 µg/mL (≈ 331 µM).
Molecule `C[C@@H](NC[C@@H]1Cc2ccccc2N1)c1cccc2ccccc12` [(S,R)-1248, (R)-N-((S)-indolin-2-ylmethyl)-1-(naphthalen-1-yl)ethanamine] has an MBC [1] of 100 µg/mL (≈ 331 µM) and an MIC ([2]; Agrobacterium, read-out: MIC) of 100 µg/mL (≈ 331 µM).
With `CC(C)CCC[C@@H](C)[C@H]1CCC2C3CCC4CC(=O)CC[C@]4(C)C3CC[C@@]21C` (stereo partly drawn) [Compound 1868] the MBC [1] was over 100 µg/mL, the MIC [2] was 12,5 µg/ml and the MIC ([2]; Agrobacterium, read-out: MIC) was 12.5 µg/mL (≈ 32.3 µM). The inhibition at 100 µg/mL [3] was 34% and the “QSI hit in library screening” value [3] was “hits”.
